One block for each compound: values may come before it. The source made the active and inactive calls. The calls are words filed in the database; no cut-off is given here.
How the values were obtained:
[1] = Toxicity in BALB/c mouse xenografted with 4T1 cells assessed as body weight loss at 10 to 20 mg/kg, iv administered on day 1,4,7 and measured for 20 days; format: organism-based; conditions: in vivo, 480 h, dose 10-20 mg/kg, time 20 day
[2] = molecular target: T1, Stimulator of interferon genes protein (Homo sapiens, UniProt Q86WV6); assay: Agonist activity at STING in human THP1-Dual cells assessed as fold change in ISG activation at 10 uM incubated for 24 hrs by Quanti-luc reagent based assay relative to control; format: cell-based; conditions: filed as agonist
Target sequence in this assay (Q86WV6 whole entry): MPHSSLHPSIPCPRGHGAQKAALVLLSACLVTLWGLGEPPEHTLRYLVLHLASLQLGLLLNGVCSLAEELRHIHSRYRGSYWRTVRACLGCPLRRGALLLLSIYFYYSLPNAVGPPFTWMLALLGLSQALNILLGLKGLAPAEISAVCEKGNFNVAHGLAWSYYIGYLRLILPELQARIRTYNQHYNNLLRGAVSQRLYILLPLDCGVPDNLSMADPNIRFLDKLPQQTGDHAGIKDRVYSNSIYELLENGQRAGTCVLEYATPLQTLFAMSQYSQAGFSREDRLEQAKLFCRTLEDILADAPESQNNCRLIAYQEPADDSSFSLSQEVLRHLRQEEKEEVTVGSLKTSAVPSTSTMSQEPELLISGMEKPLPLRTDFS

[3] = molecular target: T2, Stimulator of interferon genes protein (Mus musculus) (UniProt Q3TBT3); assay: Agonist activity at STING in mouse RAW-Lucia ISG cells assessed as fold change in ISG activation at 50 uM incubated for 24 hrs by Quanti-luc reagent based assay relative to control; format: cell-based; conditions: filed as agonist
T2 sequence (whole entry): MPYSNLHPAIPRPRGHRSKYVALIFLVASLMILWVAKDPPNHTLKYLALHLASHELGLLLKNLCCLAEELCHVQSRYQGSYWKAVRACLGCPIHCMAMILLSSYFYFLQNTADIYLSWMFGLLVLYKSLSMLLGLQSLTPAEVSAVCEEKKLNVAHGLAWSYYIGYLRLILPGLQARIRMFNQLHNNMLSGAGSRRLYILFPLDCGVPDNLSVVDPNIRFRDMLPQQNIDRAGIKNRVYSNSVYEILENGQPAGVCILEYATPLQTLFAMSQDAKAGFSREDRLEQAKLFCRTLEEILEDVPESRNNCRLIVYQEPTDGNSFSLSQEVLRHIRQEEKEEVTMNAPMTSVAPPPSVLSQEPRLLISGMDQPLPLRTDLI

[4] = molecular target: T1, Stimulator of interferon genes protein; assay: Agonist activity at STING in human THP1-Dual cells assessed as ISG activation incubated for 24 hrs by Quanti-luc reagent based assay; format: cell-based
Target sequence in this assay (Q86WV6 whole entry): as the sequence (Q86WV6 whole entry) above

[5] = molecular target: T3, Stimulator of interferon genes protein (Mus musculus, UniProt Q3TBT3); assay: Agonist activity at STING in mouse RAW-Lucia ISG cells assessed as ISG activation incubated for 24 hrs by Quanti-luc reagent based assay; format: cell-based
T3 sequence (Q3TBT3 whole entry): T2 sequence (whole entry)

[6] = test system: Stimulator of interferon genes protein (Homo sapiens), Q86WV6 [UNDEFINED MUTATION]; assay: Binding affinity to human STING R232 mutant assessed as thermal stability by measuring change in melting temperature by differential scanning fluorimetry; conditions: filed as agonist
[7] = test system: Stimulator of interferon genes protein (Homo sapiens), Q86WV6 [R293Q]; assay: Binding affinity to human STING 293Q mutant assessed as thermal stability by measuring change in melting temperature by differential scanning fluorimetry; conditions: filed as agonist
[8] = test system: Stimulator of interferon genes protein (Homo sapiens), Q86WV6 [G230A,R293Q]; assay: Binding affinity to human STING AQ mutant assessed as thermal stability by measuring change in melting temperature by differential scanning fluorimetry; conditions: filed as agonist
[9] = species on record: Homo sapiens; assay: Binding affinity to human STING H232 mutant assessed as thermal stability by measuring change in melting temperature by differential scanning fluorimetry; conditions: filed as agonist
[10] = species on record: Mus musculus; assay: Binding affinity to mouse STING R231 mutant assessed as thermal stability by measuring change in melting temperature by differential scanning fluorimetry; conditions: filed as agonist
[11] = molecular target: T1, Stimulator of interferon genes protein; assay: Binding affinity to His6-tagged human wild type STING R232 variant by homogeneous time-resolved fluorescence assay
Target sequence in this assay (Q86WV6 whole entry, looked up, change not shown): as the sequence (Q86WV6 whole entry) above

[12] = Half life in BALB/c mouse at 1 mg/kg, iv measured up to 24 hrs by UPLC-MS/MS analysis; format: ADME, organism-based; conditions: in vivo
[13] = AUClast in BALB/c mouse at 1 mg/kg, iv measured up to 24 hrs by UPLC-MS/MS analysis; format: ADME, organism-based; parameters: time < 24 hrs, dose 1 mg/kg, route iv; conditions: in vivo
[14] = Observed AUC infinity in BALB/c mouse at 1 mg/kg, iv measured up to 24 hrs by UPLC-MS/MS analysis; format: ADME, organism-based; parameters: dose 1 mg/kg, time < 24 hrs, route iv; conditions: in vivo
[15] = Observed clearance in BALB/c mouse at 1 mg/kg, iv measured up to 24 hrs by UPLC-MS/MS analysis; format: ADME, organism-based; conditions: in vivo
[16] = Observed volume of distribution at steady state in BALB/c mouse at 1 mg/kg, iv measured up to 24 hrs by UPLC-MS/MS analysis; format: ADME, organism-based; conditions: in vivo, read-out: Vdss
[17] = molecular target: T1, Stimulator of interferon genes protein; assay: Agonist activity at human STING in human THP1-Dual cells assessed as activation of ISG signaling pathway measured after 24 hrs by Quanti-luc reagent based assay; format: cell-based; conditions: filed as agonist, dose 0.0001-1 µM, DDE = dose-dependent effect
Target sequence in this assay (Q86WV6 whole entry): as the sequence (Q86WV6 whole entry) above

[18] = molecular target: T1, Stimulator of interferon genes protein; assay: Agonist activity at human STING in human THP1-Dual cells assessed as activation of NF-kappB signaling pathway measured after 24 hrs by Quanti-luc reagent based assay; format: cell-based; conditions: filed as agonist, dose 0.0001-1 µM, DDE = dose-dependent effect
Target sequence in this assay (Q86WV6 whole entry): as the sequence (Q86WV6 whole entry) above

[19] = molecular target: T1, Stimulator of interferon genes protein; assay: Activation of STING pathway in human THP1-Dual cells assessed as increase in TBK1 phosphorylation at 0.01 to 1 uM measured for 4 hrs immunoblotting analysis; format: cell-based; conditions: filed as activator, dose 0.01-1 µM
Target sequence in this assay (Q86WV6 whole entry): as the sequence (Q86WV6 whole entry) above

[20] = molecular target: T1, Stimulator of interferon genes protein; assay: Activation of STING pathway in human THP1-Dual cells assessed as increase in IRF3 phosphorylation at 0.01 to 1 uM measured for 4 hrs by immunoblotting analysis; format: cell-based; conditions: filed as activator, dose 0.01-1 µM
Target sequence in this assay (Q86WV6 whole entry): as the sequence (Q86WV6 whole entry) above

[21] = molecular target: T1, Stimulator of interferon genes protein; assay: Activation of STING pathway in human THP1-Dual cells assessed as increase in IFNbeta expression level at 0.01 to 1 uM measured for 24 hrs by chemiluminescence based analysis; format: cell-based; conditions: filed as activator, dose 0.01-1 µM
[22] = molecular target: T1, Stimulator of interferon genes protein; assay: Activation of STING pathway in human THP1-Dual cells assessed as increase in IP-10 expression level at 0.01 to 1 uM measured for 24 hrs by chemiluminescence based analysis; format: cell-based; conditions: filed as activator, dose 0.01-1 µM
[23] = molecular target: T1, Stimulator of interferon genes protein; assay: Activation of STING pathway in human 293T-Dual hSTING-H232 cells assessed as increase in IFNbeta expression level measured for 24 hrs by SEAP reporter based Quanti-luc assay; format: cell-based; conditions: filed as activator, dose 0.01-1 µM, DDE = dose-dependent effect
[24] = molecular target: T1, Stimulator of interferon genes protein; assay: Activation of STING pathway in human 293T-Dual hSTING-H232 cells assessed as increase in ISG expression level measured for 24 hrs by SEAP reporter based Quanti-luc assay; format: cell-based; conditions: filed as activator, dose 0.01-1 µM, DDE = dose-dependent effect
[25] = molecular target: T1, Stimulator of interferon genes protein; assay: Activation of STING pathway in human 293T-Dual hSTING-R232 cells assessed as increase in IFNbeta expression level measured for 24 hrs by SEAP reporter based Quanti-luc assay; format: cell-based; conditions: filed as activator, dose 0.01-1 µM, DDE = dose-dependent effect
[26] = molecular target: T1, Stimulator of interferon genes protein; assay: Activation of STING pathway in human 293T-Dual hSTING-R232 cells assessed as increase in ISG expression level measured for 24 hrs by SEAP reporter based Quanti-luc assay; format: cell-based; conditions: filed as activator, dose 0.01-1 µM, DDE = dose-dependent effect
[27] = molecular target: T2, Stimulator of interferon genes protein (Mus musculus); assay: Activation of STING pathway in mouse RAW-Lucia ISG cells assessed as increase in ISG expression level at 12.5 to 50 uM measured for 24 hrs by Quanti-luc reagent based assay; format: cell-based; conditions: filed as activator, dose 12.5-50 µM
[28] = test system: 4T1; assay: Antitumour activity against mouse 4T1 cells implanted in BALB/c mouse assessed as tumor growth inhibition at 10 mg/kg, iv administered on day 1,4,7 and measured for 20 days relative to control; format: functional; conditions: 4T1, 480 h, time 20 day, read-out: TGI
[29] = test system: 4T1; assay: Antitumour activity against mouse 4T1 cells implanted in BALB/c mouse assessed as tumor growth inhibition at 20 mg/kg, iv administered on day 1,4,7 and measured for 20 days relative to control; format: functional; conditions: 4T1, 480 h, time 20 day, read-out: TGI
[30] = test system: CT26; assay: Antitumour activity against mouse CT26 cells implanted in BALB/c mouse assessed as suppression of tumor growth at 10 mg/kg, iv administered on day 1,4,7 and measured for 20 days; format: functional, organism-based; conditions: time 20.0 day
[31] = test system: CT26; assay: Antitumour activity against mouse CT26 cells implanted in BALB/c mouse assessed as suppression of tumor growth at 5 mg/kg, IT administered on day 1,4,7 and measured for 20 days; format: functional, organism-based; conditions: time 20.0 day
[32] = test system: CT26; assay: Antitumor immunity against mouse CT26 cells implanted in BALB/c mouse assessed as increase in IP-10 level in plasma at 10 mg/kg, iv administered on day 1,4,7 for 20 days and measured 6 hrs post last dose; format: functional, organism-based; conditions: time 20.0 day
[33] = test system: CT26; assay: Antitumor immunity against mouse CT26 cells implanted in BALB/c mouse assessed as increase in IFN-beta level in plasma at 10 mg/kg, iv administered on day 1,4,7 for 20 days and measured 6 hrs post last dose; format: functional, organism-based; conditions: time 20.0 day
[34] = test system: CT26; assay: Antitumor immunity against mouse CT26 cells implanted in BALB/c mouse assessed as increase in IP-10 level in plasma at 5 mg/kg, IT administered on day 1,4,7 for 20 days and measured 6 hrs post last dose; format: functional, organism-based; conditions: time 20.0 day
[35] = test system: CT26; assay: Antitumor immunity against mouse CT26 cells implanted in BALB/c mouse assessed as increase in IFN-beta level in plasma at 5 mg/kg, IT administered on day 1,4,7 for 20 days and measured 6 hrs post last dose; format: functional, organism-based; conditions: time 20.0 day
[36] = molecular target: T1, Stimulator of interferon genes protein; assay: Inhibition of human wild type STING

Chain of Stimulator of interferon genes protein (Homo sapiens), Q86WV6 [R293Q] (Q86WV6 whole entry R293Q): as the sequence (Q86WV6 whole entry) above, with R293Q counted along it
Chain of Stimulator of interferon genes protein (Homo sapiens), Q86WV6 [G230A,R293Q] (Q86WV6 whole entry G230A/R293Q): as the sequence (Q86WV6 whole entry) above, with G230A, R293Q counted along it
Chain of Stimulator of interferon genes protein (Homo sapiens), Q86WV6 [UNDEFINED MUTATION] (Q86WV6 whole entry, looked up, stated change not applied): as the sequence (Q86WV6 whole entry) above

fold change (FC) [2]: 145
fold change (FC) [3]: 20.7
EC50 [4]: 1.2 nM
EC50 [5]: 32800 nM
ΔTm [6]: 6.6 °C
ΔTm [7]: 11.1 °C
ΔTm [8]: 12.4 °C
ΔTm [9]: 12.8 °C
ΔTm [10]: 13.3 °C
IC50 [11]: 0.6 nM
half-life [12]: 1.62 h
AUC(0-t) at 24 h [13]: 701 ng·h/mL
AUC(0-inf) [14]: 711 ng·h/mL
clearance [15]: 26.3 mL/min/kg
Vd [16]: 1.52 L/kg
Activity [17]: Dde
Activity [18]: Dde
Activity [19]: Active
Activity [20]: Active
Activity [21]: Active
Activity [22]: Active
Activity [23]: Dde
Activity [24]: Dde
Activity [25]: Dde
Activity [26]: Dde
Activity [27]: Active
SMILES: CCn1nc(C)cc1C(=O)Nc1nc2cc(C(N)=O)sc2n1C/C=C/Cn1c(NC(=O)c2cc(C)nn2CC)nc2cc(C(N)=O)cc(OCCCN3CCOCC3)c21
Activity [1]: Non-Toxic
inhibition in vivo at 10 mg/kg [28]: 61%
inhibition in vivo at 20 mg/kg [29]: 74%
Activity [30]: Active
Activity [31]: Active
Activity [32]: Active
Activity [33]: Active
Activity [34]: Active
Activity [35]: Active

fold change (FC) [2]: 1.15
fold change (FC) [3]: 2.63
SMILES: CCn1nc(C)cc1C(=O)Nc1nc2cc(C(N)=O)sc2n1CCCCn1c(NC(=O)c2cc(C)nn2CC)nc2cc(C(N)=O)sc21

IC50 [36]: 1400 nM
SMILES: CCn1nc(C)cc1C(=O)/N=c1\[nH]c2cc(C(N)=O)ccc2n1C[C@@H](O)c1ccccc1

fold change (FC) [2]: 1.15
fold change (FC) [3]: 1
SMILES: CCn1nc(C)cc1C(=O)Nc1nc2sc(C(N)=O)cc2n1CCCCn1c(NC(=O)c2cc(C)nn2CC)nc2cc(C(N)=O)cc(OCCCN3CCOCC3)c21

Reference: ChEMBL document CHEMBL5113434, “Discovery of novel Thieno[2,3-d]imidazole derivatives as agonists of human STING for antitumor immunotherapy using systemic administration” (Eur J Med Chem, 2022)
